# Test results published in EP0197829A1, “5H-pyrido[3',4':4,5]pyrrolo[3,2-c]pyridine derivatives, process for their preparation and their antitunour activity” (SANOFI, priority 1985, dated 1986).
# Several values for one entry are separate records, joined by “and”; a condition that tells them apart may be missing. Identical values can stand only once. Like-named read-outs stand apart in the source and are kept apart here.
# How the values were obtained:
# réticulosarcome M5-M5076 = assay: M5-M5076 reticulosarcoma test in vivo; design: species or system souris hybrides BDF1; conditions: 160 mg/kg i.p. J1, 5, 9, 13, 17
# Description: (§1) L'activité antitumorale a été testée in vivo sur différentes tumeurs selon le protocole général suivant : Toutes les souris mâles ou femelles sont inoculées par voie intrapéritonéale au jour Jo avec une quantité déterminée de cellules tumorales viables, variable selon la tumeur.
# (§2) Elles sont ensuite réparties en différents lots. Chaque lot correspondant aux animaux traités par le produit à tester à une dose déterminée est composé de lO souris. Dans ce cas, le produit à tester est dissous dans l'eau distillée et il est administré, pendant n jours (J1-Jn) variables selon le protocole choisi, par voie intrapéritonéale à raison de 0,1 ml par lO g de poids des souris traitées, les doses du produit administré étant précisées dans les tableaux ci-dessous.
# (§3) Le lot "Contrôle négatif", correspondant aux animaux qui ne sont pas traités par un produit, comprend 2 √N animaux, N étant égal au nombre total de souris traitées par un produit.
# (§4) Enfin, tous lés essais sont conduits parallèlement à l'étude d'un lot appelé "Contrôle positif" de 10 animaux qui est traité par une molécule active, variable selon le protocole choisi, dans les mêmes conditions que les lots traités par le produit à tester, afin de valider l'essai.
# (§5) L'activité antitumorale est évaluée en considérant l'augmentation du temps de survie des animaux traités par rapport à celui des animaux du lot "Contrôle négatif" selon la formule : • Jour médian de survie des animaux traités à une T/C = dose donnée de produit x 100 • Jour médian de survie des animaux "Contrôle négatif"
# (§6) Un composé est considéré comme étant actif lorsque la valeur du rapport T/C est égale ou supérieure à 125 % selon le protocole retenu. Il est toxique lorsque cette valeur est égale ou inférieure à 85 %. Le produit est également considéré comme toxique lorsque la variation pondérale, exprimée en grammes et calculée par la formule : Poids moyen du lot mesuré au jour 5 - poids moyen du même lot au jour 1, est égale ou inférieure à -4g . a) Test de la leucémie P 388 (GERAN et al., Cancer Chemother, 1972, 2, 07-57).
# d) Test du réticulosarcome M5-M5076.
# Les essais sont effectués avec des souris hybrides BDF1 inoculées avec 10^6 cellules de la lignée M5-M5076. Le composé à tester est administré 5 fois successivement de façon séquentielle (Jl, 5, 9, 13, 17). Le contrôle positif du test est le cyclophosphamide administré dans les mêmes conditions. Le nombre d'animaux survivants est évalué au jour J 75. Un composé est considéré comme actif lorsque le rapport T/C est supérieur ou égal à 125 %.
# leucémie P 388 = type: in vivo, souris hybrides CDF1
# Description: as §1, §2, §3, §4, §5, §6
# Les essais sont effectués avec des souris hybrides CDF1 inoculées par voie intrapéritonéale avec […] leucémiques de la lignée P 388. Le composé à tester est administré pendant 5 jours (Jl-J5). Le contrôle positif du test est le 5-fluorouracile qui est administré dans les mêmes conditions.
# […] Un composé est considéré comme étant actif lorsque le rapport T/C est supérieur à 127 %.
# [1] = test system: lignée tumorale leucémie L 1210; assay: In vitro cytotoxicity on L 1210 leukemia cell culture; type: cell-based; conditions: Mus musculus, L1210; concentration inhibiting cell proliferation by 50 p. 100, after 48 h contact; read-out: ID 50 (the source's name)
# Experimental: 1) In vitro : (PAOLETTI et al., Chem. Biol. Interaction, 1979, 25, 45-58).
# L'activité cytotoxique des composés de l'invention a été évaluée par des essais in vitro. Ces essais consistent à ajouter des concentrations croissantes du composé à tester à une culture cellulaire de la lignée tumorale leucémie L 1210 en phase exponentielle de croissance. Les cellules sont incubées à 37°C dans une étuve à C02 et comptées toutes les 24 heures. Le calcul de l'ID 50 (concentration du produit exprimée en micromole 1^-1 qui inhibe la prolifération cellulaire à 50 p. 100) est effectué après 48 heures de contact. Ainsi déterminées, les ID 50 des composés de l'invention sont rassemblées dans le tableau I ci-après : […]
# mélanome B 16 = assay: B 16 melanoma test in vivo; design: species or system souris hybrides BDF1; Jour médian de survie: unit not given here; conditions: for Survivants: at day J 60
# Description: as §1, §2, §3, §4, §5, §6
# c) Test du mélanome B 16 (GERAN et al., Cancer Chemother, 1972, 2, 07-57).
# Les essais sont effectués avec des souris hybrides BDF1 inoculées avec O,5 ml d'un homogénat de mélanome B 16 réalisé à partir de 1 g de tumeur dans 10 ml de sérum physiologique. Le composé à tester est administré pendant 9 jours (J1-J9). Le contrôle positif du test est le Cis- platine administré dans les mêmes conditions. Le nombre d'animaux survivants est évalué au jour J 60. Un composé est considéré comme étant actif lorsque le rapport T/C est supérieur ou égal à 125 %.
# in vivo = assay: in vivo; design: species or system souris; conditions: mouse, ip
# Experimental: Ainsi, l'administration à des souris hybrides CDF1 saines, en une injection unique par la voie intrapéritonéale, de doses croissantes des composés à tester (5 mg, 10 mg, 20 mg, 40 mg/kg) a permis de constater que, à ces doses, les produits étaient parfaitement tolérés puisque le taux de survivants était de 100 p. 100.
# Dans les mêmes conditions, administrés à des souris BDF1 saines, les taux de survivants étaient de 100 p. 100 jusqu'à 100 mg/kg pour les dérivés 1, 3 et 9 et jusqu'à 200 mg/kg pour les dérivés 2 et 8.
# leucémie L 1210 = assay: L 1210 leukemia test in vivo; design: species or system souris hybrides CDF1; conditions: 20 mg/kg i.p. J1-J5
# Description: as §1, §2, §3, §4, §5, §6
# b) Test de la leucémie L 1210 (GERAN et al., Cancer Chemother, 1972, 2, 07-57).
# Les essais sont effectués avec des souris hybrides CDF1 inoculées avec 10^5 cellules leucémiques de la lignée L 1210. Le composé à tester est administré pendant 5 jours (J1-J5). Le contrôle positif du test est le 5-fluorouracile administré dans les mêmes conditions. Le nombre d'animaux survivants est évalué au jour J 60. Un composé est considéré comme étant actif lorsque le rapport T/C est supérieur ou égal à 125 %.
# [2] = 5 mg/kg i.p. J1-J5, at day J 40
# [3] = 10 mg/kg i.p. J1-J5, at day J 40
# [4] = 20 mg/kg i.p. J1-J5, at day J 40
# [5] = 40 mg/kg i.p. J1-J5, at day J 40
# [6] = 80 mg/kg i.p. J1-J5, at day J 40
smiles,measurement,setting,value
"O=P1(N(CCCl)CCCl)NCCCO1 (centres unmarked) [Cyclophosphamide, cyclophosphamide, reference compound]",Jour médian de survie,réticulosarcome M5-M5076,> 60 and > 71
same,T/C %,réticulosarcome M5-M5076,>229% and >246%
same,Survivants,réticulosarcome M5-M5076; at day J 75,9 and 6
"Cc1cnc(NCCCN(C)C)c2c1[nH]c1ccncc12 [Dérivé N° 3 bis, [(diméthylamino-3 propyl-1)amino]-1 méthyl-4 5-H pyrido[3',4':4,5]pyrrolo[3,2-c]pyridine]",Jour médian de survie,leucémie P 388; 5 mg/kg i.p. J1-J5,"15,83"
same,T/C %,leucémie P 388; 5 mg/kg i.p. J1-J5,145%
same,Survivants,leucémie P 388; [2],0/10
same,Jour médian de survie,leucémie P 388; 10 mg/kg i.p. J1-J5,"17,13"
same,T/C %,leucémie P 388; 10 mg/kg i.p. J1-J5,156%
same,Survivants,leucémie P 388; [3],0/10
same,Jour médian de survie,leucémie P 388; 20 mg/kg i.p. J1-J5,"20,33"
same,T/C %,leucémie P 388; 20 mg/kg i.p. J1-J5,186%
same,Survivants,leucémie P 388; [4],0/10
same,Jour médian de survie,leucémie P 388; 40 mg/kg i.p. J1-J5,"20,25"
same,T/C %,leucémie P 388; 40 mg/kg i.p. J1-J5,184%
same,Survivants,leucémie P 388; [5],0/10
same,Jour médian de survie,leucémie P 388; 50 mg/kg i.p. J1-J5,22
same,T/C %,leucémie P 388; 50 mg/kg i.p. J1-J5,181%
same,Survivants,"leucémie P 388; 50 mg/kg i.p. J1-J5, à J 42",1/10 à J 42
same,Jour médian de survie,leucémie P 388; 80 mg/kg i.p. J1-J5,"19,88"
same,T/C %,leucémie P 388; 80 mg/kg i.p. J1-J5,181%
same,Survivants,leucémie P 388; [6],0/10
same,IC50,[1],160 nM
"CCN(CC)CCCCNc1ncc(C)c2c1c1cnccc1n2C [Dérivé N° 10, [(diéthylamino-4 butyl-1)amino]-1 diméthyl-4,5 5-H pyrido[3',4':4,5]pyrrolo[3,2-c]pyridine]",IC50,[1],2000 nM
"CCCN(CCC)CCCNc1ncc(C)c2[nH]c3ccncc3c12 [Dérivé N° 12, [(dipropylamino-3 propyl-1)amino]-1 méthyl-4 5-H pyrido[3',4':4,5]pyrrolo[3,2-c]pyridine]",IC50,[1],8500 nM
"[NH2][Pt]([NH2])([Cl])[Cl] [Cis-platine, reference compound]",Jour médian de survie,"mélanome B 16; 0,5 mg/kg i.p. J1-J9","30 and 31,0 and 40,0"
same,T/C %,"mélanome B 16; 0,5 mg/kg i.p. J1-J9",126% and 133% and 141%
same,Survivants,"mélanome B 16; 0,5 mg/kg i.p. J1-J9",0
"Cc1cnc(NCCCN(C)C)c2c3cnccc3n(C)c12 [Dérivé N° 9, diméthyl-4,5 [(diméthylamino-3 propyl-1)-amino]-1 5-H pyrido[3',4':4,5]pyrrolo[3,2-c]pyridine]",survival,in vivo; 100 mg/kg,100%
same,Jour médian de survie,leucémie P 388; 5 mg/kg i.p. J1-J5,"15,75"
same,T/C %,leucémie P 388; 5 mg/kg i.p. J1-J5,136%
same,Survivants,leucémie P 388; [2],0
same,Jour médian de survie,leucémie P 388; 10 mg/kg i.p. J1-J5,"17,38"
same,T/C %,leucémie P 388; 10 mg/kg i.p. J1-J5,150%
same,Survivants,leucémie P 388; [3],0
same,Jour médian de survie,leucémie P 388; 20 mg/kg i.p. J1-J5,"19,33"
same,T/C %,leucémie P 388; 20 mg/kg i.p. J1-J5,167%
same,Survivants,leucémie P 388; [4],0
same,Jour médian de survie,leucémie P 388; 40 mg/kg i.p. J1-J5,"20,0"
same,T/C %,leucémie P 388; 40 mg/kg i.p. J1-J5,173%
same,Survivants,leucémie P 388; [5],0
same,Jour médian de survie,leucémie P 388; 80 mg/kg i.p. J1-J5,"8,25"
same,T/C %,leucémie P 388; 80 mg/kg i.p. J1-J5,71%
same,Survivants,leucémie P 388; [6],0
same,IC50,[1],300 nM
"CCN(CC)CCCNc1ncc(C)c2[nH]c3ccncc3c12 [Dérivé N° 1, [(diéthylamino-3 propyl-1)amino]-1 méthyl-4 5-H pyrido[3',4':4,5]pyrrolo[3,2-c]pyridine]",survival,in vivo; 100 mg/kg,100%
same,Jour médian de survie,leucémie P 388; 5 mg/kg i.p. J1-J5,"14,1"
same,T/C %,leucémie P 388; 5 mg/kg i.p. J1-J5,132%
same,Survivants,leucémie P 388; [2],0/10
same,Jour médian de survie,leucémie P 388; 10 mg/kg i.p. J1-J5,"14,6"
same,T/C %,leucémie P 388; 10 mg/kg i.p. J1-J5,136%
same,Survivants,leucémie P 388; [3],0/10
same,Jour médian de survie,leucémie P 388; 20 mg/kg i.p. J1-J5,"15,9"
same,T/C %,leucémie P 388; 20 mg/kg i.p. J1-J5,148%
same,Survivants,leucémie P 388; [4],0/10
same,Jour médian de survie,leucémie P 388; 40 mg/kg i.p. J1-J5,"16,6"
same,T/C %,leucémie P 388; 40 mg/kg i.p. J1-J5,155%
same,Survivants,leucémie P 388; [5],0/10
same,Jour médian de survie,leucémie P 388; 50 mg/kg i.p. J1-J5,"3,1"
same,T/C %,leucémie P 388; 50 mg/kg i.p. J1-J5,26%
same,Survivants,"leucémie P 388; 50 mg/kg i.p. J1-J5, at day J 40",0/10
same,Jour médian de survie,mélanome B 16; 5 mg/kg i.p. J1-J9,"28,25"
same,T/C %,mélanome B 16; 5 mg/kg i.p. J1-J9,119%
same,Survivants,mélanome B 16; 5 mg/kg i.p. J1-J9,0
same,Jour médian de survie,mélanome B 16; 10 mg/kg i.p. J1-J9,"30,0"
same,T/C %,mélanome B 16; 10 mg/kg i.p. J1-J9,126%
same,Survivants,mélanome B 16; 10 mg/kg i.p. J1-J9,0
same,Jour médian de survie,mélanome B 16; 20 mg/kg i.p. J1-J9,"34,25"
same,T/C %,mélanome B 16; 20 mg/kg i.p. J1-J9,144%
same,Survivants,mélanome B 16; 20 mg/kg i.p. J1-J9,0
same,IC50,[1],340 nM
"CCN(CC)CCCNc1ncc(C)c2c1c1cnccc1n2CC [Dérivé N° 5, [(diéthylamino-3 propyl-1)amino]-1 méthyl-4 éthyl-5 5-H pyrido[3',4':4,5]pyrrolo[3,2-c]pyridine]",IC50,[1],1400 nM
"O=c1[nH]cc(F)c(=O)[nH]1 [Fluorouracile, 5-fluorouracile, reference compound]",Survivants,leucémie P 388; [4],0/10 and 0
same,Jour médian de survie,leucémie L 1210,"16,0 and 18"
same,T/C %,leucémie L 1210,178% and 195%
same,Survivants,leucémie L 1210; at day J 60,0
"Cc1cnc(NCCNCCO)c2c1[nH]c1ccncc12 [Dérivé N° 2, [[[(hydroxy-2 éthyl-l)amino]-2 éthyl-1]-amino]-1 méthyl-4 5-H pyrido[3',4':4,5]pyrrolo[3,2-c]pyridine]",survival,in vivo; 200 mg/kg,100%
"CCCN(CCC)CCCNc1ncc(C)c2c1c1cnccc1n2C [Dérivé N° 13, diméthyl-4,5[(dipropylamino-3 propyl-1)ami-no]-l 5-H pyrido[3',4':4,5]pyrrolo[3,2-c]pyridine]",IC50,[1],3200 nM
